# Reference: ChEMBL document CHEMBL1201862, “PubChem BioAssay data set” (2004)
# Structures can show the parent of a compound that is named as a salt. The source made the active and inactive calls.
# Key:
# [1] = target: T1, Dual specificity protein phosphatase 6 (Rattus norvegicus, UniProt Q64346); experiment: MKP-3 phosphatase inhibitors, primary screen, biochemical, rat enzyme, in vitro (AID 425)
# T1 sequence (Q64346 whole entry): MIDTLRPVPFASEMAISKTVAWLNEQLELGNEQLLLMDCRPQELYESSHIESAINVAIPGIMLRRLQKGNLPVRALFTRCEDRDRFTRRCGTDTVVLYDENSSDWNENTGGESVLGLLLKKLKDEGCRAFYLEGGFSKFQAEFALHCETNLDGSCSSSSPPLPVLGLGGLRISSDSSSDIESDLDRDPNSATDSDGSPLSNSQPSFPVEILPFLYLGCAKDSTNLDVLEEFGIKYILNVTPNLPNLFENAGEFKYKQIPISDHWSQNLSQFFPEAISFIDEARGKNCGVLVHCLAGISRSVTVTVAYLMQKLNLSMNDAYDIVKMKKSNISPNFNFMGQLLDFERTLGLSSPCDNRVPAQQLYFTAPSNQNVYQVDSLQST
# [2] = target: Transitional endoplasmic reticulum ATPase (Homo sapiens, UniProt P55072, C522A); experiment: Luminescence counterscreen assay for p97 inhibitors: dose response biochemical high throughput screening assay to identify inhibitors of the C522A mutant p97 ATPase: synthesized compounds. [Related pubchem assays: 1481, 1517, 1551 ]
# [3] = target: Transitional endoplasmic reticulum ATPase (Homo sapiens, UniProt P55072); experiment: Luminescence dose response biochemical high throughput screening assay for inhibitors of the p97 ATPase: synthesized compounds. [Related pubchem assays: 1481, 1517 ]
# [4] = tested on: Streptococcus; experiment: Group A Streptococcus viability loss, dose response, counter-screen for streptokinase expression inhibitor project, luminescence, BacTiterGlo (AID 1915); assay type: functional, organism-based;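 note: potency for reduction of bacterial viability or growth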
# [5] = cytotoxicity in HEK-293T NF-kB-Luc cells, dose response, cytotoxicity control for B/T-cell NF-kB inhibitor project, cell-based, uHTS hits (AID 489019); assay type: functional;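 note: IC50 reflects cytotoxicity as loss of cell viability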
# [6] = tested on: HeLa; experiment: HeLa cell cytotoxicity, dose response, cytotoxicity control, 24 h, cherry-picked samples (AID 504726); assay type: functional, cell-based; details: Homo sapiens;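 note: potency for cytotoxicity as loss of luminescence signal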
# [7] = tested on: BJ; experiment: cytotoxicity toward Ras-transformed BJeLR fibroblasts, dose response, cell-based, alamar blue fluorescence, cherrypicked samples (AID 2631); assay type: functional; details: Homo sapiens;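 note: confirmatory dose-response assay in RAS-dependent BJ fibroblasts engineered with TERT, LT and ST, with cytotoxicity read by fluorescence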
# [8] = target: UDP-galactopyranose mutase (Mycobacterium tuberculosis, UniProt P9WIQ1); experiment: Inhibitors of Mycobacterium tuberculosis UDP-galactopyranose mutase (UGM) enzyme Measured in Biochemical System Using Plate Reader - 2105-02_Inhibitor_Dose_CherryPick_Activity. [Related pubchem assays (depositor defined):AID504439]
# [9] = target: Keap1/Nrf2 (Homo sapiens, UniProt Q14145); experiment: Keap1-Nrf2 protein-protein interaction inhibitors, dose response, biochemical, fluorescence polarization, cherry-picked samples (AID 588683)
# [10] = target: T2, Apoptotic protease-activating factor 1 (Homo sapiens, UniProt O14727); assay type: functional
# T2 sequence (O14727 whole entry): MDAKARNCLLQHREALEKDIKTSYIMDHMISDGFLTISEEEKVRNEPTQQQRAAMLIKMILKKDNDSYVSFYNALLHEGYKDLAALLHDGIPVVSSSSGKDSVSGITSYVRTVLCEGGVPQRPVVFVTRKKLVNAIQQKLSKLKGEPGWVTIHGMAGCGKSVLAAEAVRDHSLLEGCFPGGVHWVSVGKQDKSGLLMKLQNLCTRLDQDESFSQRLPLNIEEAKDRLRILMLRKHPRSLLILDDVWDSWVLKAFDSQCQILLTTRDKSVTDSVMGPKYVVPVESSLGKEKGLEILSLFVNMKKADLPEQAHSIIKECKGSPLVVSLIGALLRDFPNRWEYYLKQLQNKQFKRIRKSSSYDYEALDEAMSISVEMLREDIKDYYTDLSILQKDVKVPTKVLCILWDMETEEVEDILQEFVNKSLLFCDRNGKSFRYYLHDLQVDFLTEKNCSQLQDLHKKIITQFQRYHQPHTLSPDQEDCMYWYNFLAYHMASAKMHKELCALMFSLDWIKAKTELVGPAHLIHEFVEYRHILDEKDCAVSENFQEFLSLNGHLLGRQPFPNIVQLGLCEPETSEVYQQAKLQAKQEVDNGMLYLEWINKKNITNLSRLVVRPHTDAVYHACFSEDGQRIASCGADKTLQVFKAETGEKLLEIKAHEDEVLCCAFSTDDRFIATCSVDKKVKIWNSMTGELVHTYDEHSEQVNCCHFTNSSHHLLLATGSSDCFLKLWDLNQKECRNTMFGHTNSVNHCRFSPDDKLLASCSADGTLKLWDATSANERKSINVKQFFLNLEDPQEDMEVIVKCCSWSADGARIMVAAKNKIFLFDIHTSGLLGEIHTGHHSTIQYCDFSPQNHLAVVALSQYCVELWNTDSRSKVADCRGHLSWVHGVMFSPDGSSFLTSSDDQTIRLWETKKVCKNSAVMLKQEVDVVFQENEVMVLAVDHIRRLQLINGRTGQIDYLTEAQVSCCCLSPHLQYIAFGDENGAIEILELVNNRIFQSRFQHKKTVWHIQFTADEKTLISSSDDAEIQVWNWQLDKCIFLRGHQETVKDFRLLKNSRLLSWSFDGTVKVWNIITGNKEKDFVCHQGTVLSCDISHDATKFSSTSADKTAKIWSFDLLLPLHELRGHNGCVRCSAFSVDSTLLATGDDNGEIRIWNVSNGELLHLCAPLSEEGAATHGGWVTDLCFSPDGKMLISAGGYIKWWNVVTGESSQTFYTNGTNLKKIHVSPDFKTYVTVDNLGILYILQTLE
# [11] = target: T3, ORF 73 (Human herpesvirus 8, UniProt O40947); experiment: inhibitors of C-LANA binding to LBS DNA, dose response, biochemical, fluorescence polarization, cherry-picked samples (AID 504725); parameters: species or system Human gammaherpesvirus 8;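 note: fluorescence polarization of a labeled DNA duplex reporting LANA DNA binding; potency is for inhibitors that block LANA binding to the DNA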
# T3 sequence (O40947 whole entry): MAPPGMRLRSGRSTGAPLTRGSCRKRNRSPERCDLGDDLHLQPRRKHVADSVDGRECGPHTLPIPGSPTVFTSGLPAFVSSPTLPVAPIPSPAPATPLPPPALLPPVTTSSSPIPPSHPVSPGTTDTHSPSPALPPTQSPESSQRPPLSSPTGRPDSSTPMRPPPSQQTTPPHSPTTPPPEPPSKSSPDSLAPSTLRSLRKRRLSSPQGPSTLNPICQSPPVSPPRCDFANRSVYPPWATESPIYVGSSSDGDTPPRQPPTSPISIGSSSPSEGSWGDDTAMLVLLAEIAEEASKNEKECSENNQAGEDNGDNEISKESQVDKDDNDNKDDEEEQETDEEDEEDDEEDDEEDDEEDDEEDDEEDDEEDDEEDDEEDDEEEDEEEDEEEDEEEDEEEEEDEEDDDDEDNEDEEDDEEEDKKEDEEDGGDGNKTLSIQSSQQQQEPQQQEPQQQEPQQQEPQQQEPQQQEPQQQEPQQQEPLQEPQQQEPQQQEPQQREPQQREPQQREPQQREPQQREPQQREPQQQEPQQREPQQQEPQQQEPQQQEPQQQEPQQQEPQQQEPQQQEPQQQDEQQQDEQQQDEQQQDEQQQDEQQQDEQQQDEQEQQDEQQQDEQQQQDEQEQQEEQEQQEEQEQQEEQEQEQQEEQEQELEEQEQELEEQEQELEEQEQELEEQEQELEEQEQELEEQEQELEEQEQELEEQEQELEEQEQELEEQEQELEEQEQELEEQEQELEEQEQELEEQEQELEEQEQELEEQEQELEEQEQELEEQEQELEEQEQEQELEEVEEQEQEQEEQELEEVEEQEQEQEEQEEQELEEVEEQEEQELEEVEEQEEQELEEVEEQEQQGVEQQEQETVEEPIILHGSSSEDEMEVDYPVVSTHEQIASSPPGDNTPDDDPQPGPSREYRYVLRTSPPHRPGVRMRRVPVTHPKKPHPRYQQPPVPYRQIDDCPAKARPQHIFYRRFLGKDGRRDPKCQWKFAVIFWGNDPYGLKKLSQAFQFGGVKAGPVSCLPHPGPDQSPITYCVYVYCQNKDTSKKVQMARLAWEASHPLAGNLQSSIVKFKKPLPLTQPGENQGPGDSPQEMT
# [12] = target: 14-3-3 protein gamma (Homo sapiens, UniProt P61981); experiment: modulators of 14-3-3 gamma client binding – dose response (AID 711); assay type: functional
# [13] = tested on: Streptococcus sp. 'group A'; experiment: growth inhibition of control SK(-) GAS strain, dose response, counter-screen for streptokinase expression inhibitor project, luminescence, kanamycin, BacTiterGlo, confirmation (AID 1900); assay type: functional, organism-based
# [14] = target: Protein S100-A4 (Homo sapiens, UniProt P26447); experiment: S100A4-myosin IIA binding inhibitor potency, dose response, biochemical, fluorescence polarization, cherry-picked hits (AID 687001); assay type: functional
# Sequence of Protein S100-A4 (P26447 whole entry): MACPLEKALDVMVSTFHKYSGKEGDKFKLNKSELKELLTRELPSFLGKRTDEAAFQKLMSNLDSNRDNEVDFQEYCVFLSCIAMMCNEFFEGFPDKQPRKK
# Sequence of UDP-galactopyranose mutase (P9WIQ1 whole entry): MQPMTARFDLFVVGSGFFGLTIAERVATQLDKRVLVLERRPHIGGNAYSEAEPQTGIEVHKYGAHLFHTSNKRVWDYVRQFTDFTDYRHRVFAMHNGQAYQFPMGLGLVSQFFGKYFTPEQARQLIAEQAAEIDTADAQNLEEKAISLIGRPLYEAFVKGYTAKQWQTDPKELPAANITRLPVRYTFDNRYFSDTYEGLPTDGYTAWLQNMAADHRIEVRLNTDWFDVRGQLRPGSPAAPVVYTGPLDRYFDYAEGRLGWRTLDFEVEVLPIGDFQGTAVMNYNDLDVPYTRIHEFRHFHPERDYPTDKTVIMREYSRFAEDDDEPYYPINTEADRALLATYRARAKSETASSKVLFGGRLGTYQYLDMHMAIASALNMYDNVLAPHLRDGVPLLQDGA
# Sequence of Transitional endoplasmic reticulum ATPase (Homo sapiens, UniProt P55072, C522A) (P55072 2-806 C522A limits assumed): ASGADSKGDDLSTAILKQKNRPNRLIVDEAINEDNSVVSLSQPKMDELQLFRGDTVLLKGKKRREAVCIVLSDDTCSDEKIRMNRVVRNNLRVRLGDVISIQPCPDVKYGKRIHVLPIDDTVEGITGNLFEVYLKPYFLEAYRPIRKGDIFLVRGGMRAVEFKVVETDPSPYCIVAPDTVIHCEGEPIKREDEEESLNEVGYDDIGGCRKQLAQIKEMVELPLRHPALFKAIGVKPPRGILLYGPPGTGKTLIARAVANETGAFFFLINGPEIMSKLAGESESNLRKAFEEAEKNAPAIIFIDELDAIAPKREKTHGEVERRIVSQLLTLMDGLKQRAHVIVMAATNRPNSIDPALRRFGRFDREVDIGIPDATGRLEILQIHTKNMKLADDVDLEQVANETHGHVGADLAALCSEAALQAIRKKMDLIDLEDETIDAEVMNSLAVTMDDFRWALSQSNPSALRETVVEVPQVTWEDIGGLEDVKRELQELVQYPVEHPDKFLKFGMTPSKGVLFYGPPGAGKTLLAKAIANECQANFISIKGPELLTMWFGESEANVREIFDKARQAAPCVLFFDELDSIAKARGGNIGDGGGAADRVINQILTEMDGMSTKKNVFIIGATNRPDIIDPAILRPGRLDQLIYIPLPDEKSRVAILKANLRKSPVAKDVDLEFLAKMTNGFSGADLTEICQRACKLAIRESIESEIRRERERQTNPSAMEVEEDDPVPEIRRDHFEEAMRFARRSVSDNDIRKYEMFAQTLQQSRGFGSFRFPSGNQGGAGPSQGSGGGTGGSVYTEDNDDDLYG
# Sequence of 14-3-3 protein gamma (P61981 whole entry): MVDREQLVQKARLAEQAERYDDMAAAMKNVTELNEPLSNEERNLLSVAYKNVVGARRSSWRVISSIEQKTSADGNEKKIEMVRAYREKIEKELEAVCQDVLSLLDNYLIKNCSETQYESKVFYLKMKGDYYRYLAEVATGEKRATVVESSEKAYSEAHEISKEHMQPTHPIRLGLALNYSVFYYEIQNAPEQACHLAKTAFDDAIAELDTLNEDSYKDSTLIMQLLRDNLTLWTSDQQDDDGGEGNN
# Sequence of Transitional endoplasmic reticulum ATPase (Homo sapiens, UniProt P55072) (P55072 whole entry): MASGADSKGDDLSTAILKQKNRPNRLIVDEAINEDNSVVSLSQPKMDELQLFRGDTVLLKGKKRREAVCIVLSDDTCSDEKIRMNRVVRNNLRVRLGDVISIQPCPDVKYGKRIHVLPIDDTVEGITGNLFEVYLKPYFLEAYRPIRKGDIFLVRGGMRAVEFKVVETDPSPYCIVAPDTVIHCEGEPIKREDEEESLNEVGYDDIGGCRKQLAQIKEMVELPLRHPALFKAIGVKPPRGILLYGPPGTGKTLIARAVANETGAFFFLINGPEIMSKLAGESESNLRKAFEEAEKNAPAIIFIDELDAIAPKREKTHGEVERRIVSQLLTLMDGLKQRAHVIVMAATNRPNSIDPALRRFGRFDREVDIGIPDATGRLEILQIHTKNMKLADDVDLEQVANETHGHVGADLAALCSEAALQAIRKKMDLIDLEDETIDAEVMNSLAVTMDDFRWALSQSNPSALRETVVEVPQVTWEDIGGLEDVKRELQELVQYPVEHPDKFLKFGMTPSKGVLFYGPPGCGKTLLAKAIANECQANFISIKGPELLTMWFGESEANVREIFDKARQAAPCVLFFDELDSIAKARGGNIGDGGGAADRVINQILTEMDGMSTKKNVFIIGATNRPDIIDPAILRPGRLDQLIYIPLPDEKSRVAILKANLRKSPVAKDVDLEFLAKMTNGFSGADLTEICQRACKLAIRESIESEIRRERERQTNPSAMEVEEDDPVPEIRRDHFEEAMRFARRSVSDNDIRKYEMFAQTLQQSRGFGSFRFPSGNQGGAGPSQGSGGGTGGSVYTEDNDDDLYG
# Sequence of Keap1/Nrf2 (Q16236 whole entry): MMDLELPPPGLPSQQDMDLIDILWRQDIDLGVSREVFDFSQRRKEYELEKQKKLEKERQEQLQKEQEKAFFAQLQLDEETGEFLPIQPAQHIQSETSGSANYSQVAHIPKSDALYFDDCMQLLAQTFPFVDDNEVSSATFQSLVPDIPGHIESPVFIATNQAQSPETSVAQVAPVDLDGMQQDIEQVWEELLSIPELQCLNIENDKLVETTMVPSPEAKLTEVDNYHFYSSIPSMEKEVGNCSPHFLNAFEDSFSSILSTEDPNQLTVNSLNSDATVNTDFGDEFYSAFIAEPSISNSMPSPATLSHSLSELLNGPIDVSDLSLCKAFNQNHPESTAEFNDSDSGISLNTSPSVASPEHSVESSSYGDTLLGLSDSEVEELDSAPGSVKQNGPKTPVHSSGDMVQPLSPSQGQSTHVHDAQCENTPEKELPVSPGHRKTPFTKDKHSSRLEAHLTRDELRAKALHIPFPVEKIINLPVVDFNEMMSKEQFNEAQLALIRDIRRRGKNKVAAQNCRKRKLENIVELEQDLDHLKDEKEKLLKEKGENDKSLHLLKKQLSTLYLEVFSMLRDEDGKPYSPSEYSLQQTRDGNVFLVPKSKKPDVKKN
# Sequence of Keap1/Nrf2 (Q14145 whole entry): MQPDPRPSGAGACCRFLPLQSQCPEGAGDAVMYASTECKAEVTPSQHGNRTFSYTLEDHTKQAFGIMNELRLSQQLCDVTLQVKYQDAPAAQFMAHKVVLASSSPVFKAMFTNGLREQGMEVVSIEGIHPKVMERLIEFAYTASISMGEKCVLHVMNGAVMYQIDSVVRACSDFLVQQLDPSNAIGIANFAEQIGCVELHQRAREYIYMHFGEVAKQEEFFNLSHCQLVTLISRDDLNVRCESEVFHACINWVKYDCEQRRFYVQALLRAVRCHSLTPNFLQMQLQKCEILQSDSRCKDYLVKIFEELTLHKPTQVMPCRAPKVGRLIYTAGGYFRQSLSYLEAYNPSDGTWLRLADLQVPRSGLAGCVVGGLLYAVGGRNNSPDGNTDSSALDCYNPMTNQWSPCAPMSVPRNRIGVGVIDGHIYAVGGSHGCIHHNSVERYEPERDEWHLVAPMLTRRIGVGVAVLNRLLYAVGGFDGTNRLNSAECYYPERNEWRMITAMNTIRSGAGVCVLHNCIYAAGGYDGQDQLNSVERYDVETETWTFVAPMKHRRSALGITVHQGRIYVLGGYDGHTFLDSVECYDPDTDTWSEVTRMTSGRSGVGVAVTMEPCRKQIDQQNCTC
compound,measurement,setting,value
COC(=O)CCCc1nc2ccccc2s1,IC50,[1],> 100 µM (not active)
N#C/C=C/c1ccccc1Nc1ccc(S(N)(=O)=O)cc1,IC50,[2],> 50 µM (not active)
same,IC50,[3],> 50 µM (not active)
COc1cccc2c1C(=O)c1c(O)c3c(c(O)c1C2=O)C[C@@](O)(C(=O)CO)C[C@@H]3O[C@H]1C[C@H](N)[C@H](O)[C@H](C)O1 [DOXORUBICIN HYDROCHLORIDE],EC50,[4],3.69 µM (active)
same,IC50,[5],> 80 µM (inactive)
same,AC50,[6],4.38 µM (active)
same,EC50,[7],< 0.104 µM (active)
same,AC50,[8],32.2 µM (active)
same,AC50,[9],43.4 µM (active)
same,IC50,[10],21.2 µM (active)
same,AC50,[11],1.46 µM (active)
same,IC50,[12],< 0.781 µM (active)
same,EC50,[13],0.518 µM (active)
same,AC50,[14],0.323 µM (active)
